The values that follow come from ChEMBL document CHEMBL3046708, “The effect of pyridazine compounds on the cardiovascular system” (Med Chem Res, 2012).

Data set [1] deals with Sus scrofa. Briefly: Cardiotoxicity in Sus scrofa (pig) assessed as increase in maximum rate of rise of left ventricular pressure at 2.5 to 25 ug/kg/min administered as 10 min infusion. The class given is toxicity, organism-based, Heart left ventricle. The settings on record: in vivo, iv.
The test system of data set [2] is Sus scrofa. Briefly: Cardiotonic activity in iv dosed Sus scrofa (pig) assessed as change in heart rate administered as infusion. The class given is functional.
For data set [3], the system named is Sus scrofa. Kind of data set: Cardiotonic activity in iv dosed Sus scrofa (pig) assessed as change in left ventricular filling pressure administered as infusion. The format is functional, Heart left ventricle.
For data set [4], the system named is Sus scrofa. Briefly: Cardiotonic activity in iv dosed Sus scrofa (pig) assessed as change in left ventricular systolic pressure administered as infusion. The class given is functional, Heart left ventricle.
For data set [5], the system named is Sus scrofa. Briefly: Cardiotoxicity in iv dosed Sus scrofa (pig) assessed as effect on maximum rate of rise of left ventricular pressure administered as infusion. The format is toxicity, organism-based, Heart left ventricle. The settings on record: in vivo.
The test system of data set [6] is Sus scrofa. Kind of data set: Cardiotoxicity in Sus scrofa (pig) assessed as increase in maximum rate of rise of left ventricular pressure at 0.05 to 0.5 ug/kg/min administered as 10 min infusion. The class given is toxicity, organism-based, Heart left ventricle. The settings on record: in vivo, iv.

With `COc1ccc(-c2nc3ccc(C4=NNC(=O)CC4C)cc3[nH]2)cc1` (stereo unspecified) [PIMOBENDAN], the Activity in data set [1] is given as 85%; in data set [2] it was 10%; in data set [3] it was -20%; in data set [4], -5%; in data set [5], 10%.
`COC(=O)C1=C(C)NC(C)=C(C(=O)OCC(C)C)C1c1ccccc1[N+](=O)[O-]` (stereo unspecified) [NISOLDIPINE]: the Activity in data set [6] is 45%.
